From patent US20060095020A1, “Introduction of agent with medical device” (Medtronic, Inc., priority 2004, published 2006)

Tested on: staphylococcus epidermidis
Settings: in vitro
Excerpt: One skilled in the are would be able to determine the best effective concentration of the active agent, such about 0.05%, about 1%, about 5%, about 10%, about 20%, or the like that should be deployed in a choosen configuration of a given device.
FIG. 10 is a conceptual diagram illustrating an in vitro testing system 160 with an active agent. Testing system 160 includes a culture plate 162, which serves as a test platform. […] A experimental tube 168 made at least in part of diffusible material is deployed in plate 162 proximate to microorganisms 166. The diffusible material is configured to pass the test agent to the indicator by diffusion. Experimental tube 168 may be wholly or partially embedded in growth medium 164, or may rest atop growth medium 164. Experimental tube 168 includes a lumen configured to receive a test active agent.
A pump 170 pumps the active agent from a reservoir 172 into the lumen of tube 168. A valve 174 may be closed to prevent leakage or other discharge of the active agent from tube 168, and an outlet reservoir 176 may be provided to collect fluid that discharges from tube 168. In some embodiments, pump 170, valve 174, or both are electronically controlled such that the quantity of active agent in tube 168 is known, such that the pressure of active agent in tube 168 is known, or such that the flow rate of active agent in tube 168 is known. When the active agent is an antibiotic, the effect of the antibiotic agent on microorganisms 166, if any, can be observed using conventional observational techniques, such as optical or microscopic examination. In this way, the effect of the active agent on microorganisms 166 serves as an indicator of diffusion of the test agent through the diffusible material.

## OO [hydrogen peroxide]
0.3 percent hydrogen peroxide concentration
  zone of inhibition of bacterial growth: about twenty-five
Thirty percent concentration hydrogen peroxide solution, diffusing through polyethylene 80 (PE80A) tubing
  zone of inhibition of bacterial growth from the site of diffusion: eighty
Thirty percent concentration hydrogen peroxide solution
  effectiveness against staphylococcus epidermidis: substantial effectiveness
